Source: patent EP4647082A1, “PHARMACEUTICAL COMPOSITION COMPRISING A CGRP RECEPTOR ANTAGONIST FOR THE TREATMENT OF ACUTE MIGRAINE” (NUVIE BIO, Inc., priority 2024, dated 2025)
Like-named read-outs stand apart in the source and are kept apart here. Bridge positions count the residues as written; N and C are the ends. Square brackets hold non-standard residues; d marks the D form. Peptide text beside a SMILES is read from it. * marks the point of attachment. Phe(2-CONH2) = NC(=O)c1ccccc1C[C@H](N)C(=O)O; Orn(iPr) = CC(C)NCCC[C@H](N)C(=O)O; Oxazole2carbonyl = O=C(c1ncco1)*; 3Pal = N[C@@H](Cc1cccnc1)C(=O)O

Experiment: Phase I first-in-human study, pharmacokinetics after single ascending subcutaneous doses in healthy volunteers
Assay type: in vivo
Conditions: for AUC(0-inf) / AUC(0-t) / CL/F / Cmax / Tmax / half-life / level at 1 h / level at 2 h / level at 3 h / level at 0.08 h / level at 0.17 h / level at 0.25 h / level at 0.33 h / level at 0.5 h / level at 0.75 h / level at 4 h / level at 6 h / level at 8 h: human, plasma, mean; for level at 1 h: nominal time 1 h; for level at 1 h / level at 2 h / level at 3 h / level at 0.08 h / level at 0.17 h / level at 0.25 h / level at 0.33 h / level at 0.5 h / level at 0.75 h / level at 4 h / level at 6 h / level at 8 h: read-out: Plasma Concentration AXN-001; for level at 2 h: nominal time 2 h; for level at 3 h: nominal time 3 h; for level at 0.08 h: nominal time 0.08 h; for level at 0.17 h: nominal time 0.17 h; for level at 0.25 h: nominal time 0.25 h; for level at 0.33 h: nominal time 0.33 h; for level at 0.5 h: nominal time 0.50 h; for level at 0.75 h: nominal time 0.75 h; for level at 4 h: nominal time 4 h; for level at 6 h: nominal time 6 h; for level at 8 h: nominal time 8 h
Procedure: For Phase I clinical studies, the 32 mg/mL pharmaceutical composition was dosed subcutaneously. The Phase I clinical trial was a randomised, double-blind, placebo-controlled, first-in-human study of the safety, tolerability and pharmacokinetics of AXN-001 in healthy volunteers under Protocol No. AXN-001-01 .
The pharmacokinetic objective of the clinical trial was to provide pharmacokinetic analysis of AXN-001 following single ascending subcutaneous doses of AXN-001. The study design included the following Cohorts: • Cohort 1: Dose 1 mg (2 mg/mL formulation); • Cohort 2: Dose 2 mg (4 mg/mL formulation); • Cohort 3: Dose 4 mg (8 mg/mL formulation); • Cohort 4: Dose 8 mg (16 mg/mL formulation); • Cohort 5: Dose 16 mg (32 mg/mL formulation).
Participants were administered a single dose (0.5 mL) of AXN-001 or placebo via subcutaneous (SC) injection into the abdomen. Blood samples were collected at specified time points for pharmacokinetic analysis (5,10,15,20,30,45,60 minutes; 2,3,4,6,8,12,24 hours). Individual plasma concentrations of ANX-001 were determined and used for analyses.
Pharmacokinetic (PK) parameters of AXN-001 were determined using Phoenix WinNonlin version 8.3. All concentrations below the limit of quantification (BLQ) were set to zero for the purpose of the PK analysis. All AUC determinations were made using linear trapezoidal method. The following parameters were determined: Cmax Maximum observed concentration. as read directly from the observed data. Tmax Time to maximum concentration T10nM Time to 10 nM T30nM Time to 30 nM T100nM Time to 100 nM AUC0-t Area under the concentration-time curve from time zero to the time of the last measurable concentration, calculated using linear trapezoidal rule AUC0-inf Area under the concentration-time curve from time zero to infinity, calculated using linear trapezoidal rule %AUCextrap The portion of AUC determined by extrapolation t1/2 Apparent terminal elimination half-life CL/F or CL Total apparent body clearance Vz/F or Vz Apparent volume of distribution λz Terminal elimination rate constant

CC(C)NCCC[C@@H]1NC(=O)[C@@H](NC(=O)[C@H](Cc2ccccc2C(N)=O)NC(=O)[C@H](NC(=O)c2ncco2)C(C)C)CSSC[C@@H](C(=O)N[C@@H](Cc2cccnc2)C(N)=O)NC(=O)[C@H](Cc2ccccc2)NC(=O)[C@@H]2CCCN2C(=O)CNC(=O)[C@H](C(C)C)NC(=O)[C@H](CC(=O)O)NC1=O [AXN-001, Oxazole-2-carbonyl-D-Val-Phe(2-Cbm)-c(Cys-Orn (iPr)-Asp-Val-Gly-Pro-Phe-Cys)-3Pal-NH2] (Oxazole2carbonyl-[dV][Phe(2-CONH2)]C[Orn(iPr)]DVGPFC[3Pal]-NH2; disulfide 3-10)
subjects who achieved plasma concentrations of 30nM (1 mg cohort): 1 of 6
subjects who achieved plasma concentrations of 30nM (2 mg cohort): 5 of 6
subjects who achieved 100nM plasma concentrations (4 mg cohort): 2/5
subjects who achieved plasma concentrations of 30nM (4, 8, and 16 mg cohort): All subjects
subjects who achieved 100nM plasma concentrations (8 and 16 mg cohorts): All subjects
time to achieve plasma concentrations of 10nM AXN-001 (all subjects at all doses (1-16 mg SC)): less than 15 minutes
AUC(0-inf) (single SC dose 1 mg): 101 ng·h/mL
AUC(0-t) (single SC dose 1 mg): 96.1 ng·h/mL
CL/F (single SC dose 1 mg): 167 mL/min
Cmax (single SC dose 1 mg): 39.5 ng/mL
Tmax (single SC dose 1 mg): 47.5 min
half-life (single SC dose 1 mg): 78.6 min
level at 1 h (single SC dose 1 mg): 35.1 ng/mL
level at 2 h (single SC dose 1 mg): 22.8 ng/mL
level at 3 h (single SC dose 1 mg): 13.7 ng/mL
AUC(0-inf) (single SC dose 2 mg): 167 ng·h/mL
AUC(0-t) (single SC dose 2 mg): 159 ng·h/mL
CL/F (single SC dose 2 mg): 210 mL/min
Cmax (single SC dose 2 mg): 65 ng/mL
Tmax (single SC dose 2 mg): 47.5 min
half-life (single SC dose 2 mg): 81 min
level at 0.08 h (single SC dose 2 mg): 11.3 ng/mL
level at 0.17 h (single SC dose 2 mg): 21.6 ng/mL
level at 0.25 h (single SC dose 2 mg): 31.5 ng/mL
level at 0.33 h (single SC dose 2 mg): 40.4 ng/mL
level at 0.5 h (single SC dose 2 mg): 55.7 ng/mL
level at 0.75 h (single SC dose 2 mg): 62.6 ng/mL
level at 1 h (single SC dose 2 mg): 60.2 ng/mL
level at 2 h (single SC dose 2 mg): 38.1 ng/mL
level at 3 h (single SC dose 2 mg): 21.3 ng/mL
level at 4 h (single SC dose 2 mg): 11.4 ng/mL
level at 6 h (single SC dose 2 mg): 4.79 ng/mL
level at 8 h (single SC dose 2 mg): 0.713 ng/mL
AUC(0-inf) (single SC dose 4 mg): 343 ng·h/mL
AUC(0-t) (single SC dose 4 mg): 337 ng·h/mL
CL/F (single SC dose 4 mg): 197 mL/min
Cmax (single SC dose 4 mg): 133 ng/mL
Tmax (single SC dose 4 mg): 42 min
half-life (single SC dose 4 mg): 81.6 min
level at 0.08 h (single SC dose 4 mg): 9.6 ng/mL
level at 0.17 h (single SC dose 4 mg): 35.3 ng/mL
level at 0.25 h (single SC dose 4 mg): 71.4 ng/mL
level at 0.33 h (single SC dose 4 mg): 87.8 ng/mL
level at 0.5 h (single SC dose 4 mg): 115 ng/mL
level at 0.75 h (single SC dose 4 mg): 123 ng/mL
level at 1 h (single SC dose 4 mg): 134 ng/mL
level at 2 h (single SC dose 4 mg): 82.5 ng/mL
level at 3 h (single SC dose 4 mg): 44.7 ng/mL
level at 4 h (single SC dose 4 mg): 23.5 ng/mL
level at 6 h (single SC dose 4 mg): 8.25 ng/mL
level at 8 h (single SC dose 4 mg): 3.09 ng/mL
AUC(0-inf) (single SC dose 8 mg): 594 ng·h/mL
AUC(0-t) (single SC dose 8 mg): 585 ng·h/mL
CL/F (single SC dose 8 mg): 225 mL/min
Cmax (single SC dose 8 mg): 244 ng/mL
Tmax (single SC dose 8 mg): 45 min
half-life (single SC dose 8 mg): 88.2 min
level at 0.08 h (single SC dose 8 mg): 32.1 ng/mL
level at 0.17 h (single SC dose 8 mg): 84 ng/mL
level at 0.25 h (single SC dose 8 mg): 118 ng/mL
level at 0.33 h (single SC dose 8 mg): 144 ng/mL
level at 0.5 h (single SC dose 8 mg): 199 ng/mL
level at 0.75 h (single SC dose 8 mg): 240 ng/mL
level at 1 h (single SC dose 8 mg): 226 ng/mL
level at 2 h (single SC dose 8 mg): 136 ng/mL
